Experimental data published in BindingDB's records for doi:10.1016/j.bmcl.2008.04.069 (Bristol-Myers Squibb, 2008).

Molecular target: T1, 11-beta-hydroxysteroid dehydrogenase 1 [23-292,A23S,F278E] (Homo sapiens, UniProt P28845, A23S/F278E)
T1 construct: 23-292
Assay: Scintillation Proximity Assay (SPA)
Settings: pH 6.5; 23 °C
Experimental: 11beta-HSD1 microsomes isolated from HEK 293 cells over-expressing human 11beta-HSD1 were incubated with the substrate cortisone and cofactor NADPH at room temperature. The reactions were terminated with the addition of a nonspecific 11beta-HSD1 inhibitor (18beta-glycyrrhetinic acid). The product cortisol was quantified in an immuno-competition SPA wherein the [3H]-cortisol bound to anti-rabbit antibody Yitrium silicate SPA beads coated with polyclonal anti-cortisol antibody was competed by cortisol produced in the reaction, and the reaction mixture was read in a scintillation plate reader (TopCount). The amount of cortisol was determined from a cortisol standard curve.

T1 sequence (P28845 as listed by the source A23S/F278E): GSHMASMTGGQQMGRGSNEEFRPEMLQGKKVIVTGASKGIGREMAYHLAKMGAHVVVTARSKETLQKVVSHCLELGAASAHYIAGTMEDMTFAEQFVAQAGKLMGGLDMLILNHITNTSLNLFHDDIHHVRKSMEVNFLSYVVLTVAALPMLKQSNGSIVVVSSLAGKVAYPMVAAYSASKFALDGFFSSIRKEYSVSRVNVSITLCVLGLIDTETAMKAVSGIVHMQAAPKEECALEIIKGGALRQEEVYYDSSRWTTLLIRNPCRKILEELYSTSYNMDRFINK

IC50: > 10 µM
SMILES: O=C(c1cncc(CS(=O)(=O)c2c(Cl)cccc2Cl)c1)N1CCOCC1 [pyridine amide, 26]
